Test results reported in patent US12384787B2, “Fused heterocyclic compounds and their use as pest control agents” (PI INDUSTRIES LTD., priority 2019, dated 2025).

How the values were obtained:
Type in all cases: in vivo
Plutella xylostella = Plutella xylostella leaf dip method (cabbage leaves); conditions: foliar, second instar larvae, 72 h after release, dead and moribund combined, compared to untreated control, read-out: Percent mortality
Protocol: The leaf dip method was used for testing, wherein the required quantity of the compounds were weighed and dissolved in a surfactant solution, kept on a Vortex at 2000 rpm with zirconia beads for 90 min for proper mixing and then diluted with 0.01% Triton-X solution to the desired test concentration. Cabbage leaves were dipped in the solution for 10 seconds, shade dried for 20 min and then transferred to bioassay trays. A single second instar larva was released into each bioassay tray cell and the tray was covered with a lid. The bio-assay trays were kept under laboratory conditions at a temperature of 25° C. and relative humidity of 70%. Observations on dead, moribund and living larvae were recorded at 72 h after the release. Percent mortality was calculated by combining dead and moribund larvae and comparing the result to the one of the untreated control.

Spodoptera litura = Spodoptera litura diet incorporation method; conditions: third instar larvae, 96 h after release, dead and moribund combined, compared to untreated control, read-out: Percent mortality
Protocol: Diet incorporation method was used, in which the required quantity of test compounds were weighed and dissolved in surfactant solution, kept on vortex for 90 min for proper mixing, then diluted with water to the desired test concentrations. The solutions were incorporated into semi-synthetic diet when the temperature reached approximately 50° C. in the bioassay containers. The diet and solution was stirred thoroughly for properly mixing and was left to cool for 30 min. The solidified diet was cut into equal pieces, and then each piece was transferred into one cell of the bio-assay trays. A single starved third instar larva was released into each of these cells of the bioassay trays and the tray was covered with a lid. The bio-assay trays were kept under laboratory conditions at a temperature of 25° C. and relative humidity of 70%. Observations on dead, moribund and alive larvae were recorded at 96 h after the release of the larvae. Percent mortality was calculated by combining dead and moribund larvae and comparing the result to the one of the untreated control.

Helicoverpa armigera = Helicoverpa armigera diet incorporation method; conditions: third instar larvae, 96 h after release, dead and moribund combined, compared to untreated control, read-out: Percent mortality
Protocol: Diet incorporation method was used, in which the required quantity of test compounds were weighed and dissolved in a surfactant solution, kept on vortex for 90 min for proper mixing, then was diluted with water to the desired test concentrations. The solutions were incorporated into semi-synthetic diet when the temperature reached approximately 50° C. in the bioassay containers. The diet and solution was stirred thoroughly for properly mixing and then left to cool for 30 min. The solidified diet was cut into equal pieces, and then each piece was transferred into one cell of the bio-assay trays. A single third starved instar larva was released into each of these cells of the bioassay trays and each tray was covered with a lid. The bio-assay trays were kept under laboratory conditions at a temperature of 25° C. and relative humidity of 70%. Observations on dead, moribund and alive larvae were recorded at 96 h after the release of the larvae. Percent mortality was calculated by combining dead and moribund larvae and comparing the result to the one of the untreated control.

Row | Structure (SMILES) | mortality at 300 ppm (Plutella xylostella) | mortality at 300 ppm (Spodoptera litura) | mortality at 300 ppm (Helicoverpa armigera)
1 | CCS(=O)(=O)c1nn2c(-c3ccc(F)cc3)ccnc2c1-c1nc2cc(C(F)(F)F)ncc2n1C [Compound 21, 2-(2-(Ethylsulfonyl)-7-(4-fluorophenyl)pyrazolo[1,5-a]pyrimidin-3-yl)-3-methyl-6-(trifluoromethyl)-3H-imidazo[4,5-c]pyridine] | > 70% | > 70% | > 70%
2 | CCS(=O)(=O)c1nn2c(-c3ccc(Cl)c(F)c3)ccnc2c1-c1nc2cc(C(F)(F)F)cnc2n1C [Compound 118, 2-(7-(4-Chloro-3-fluorophenyl)-2-(ethylsulfonyl)pyrazolo[1,5-a]pyrimidin-3-yl)-3-methyl-6-(trifluoromethyl)-3H-imidazo[4,5-b]pyridine] | > 70% | > 70% | > 70%
3 | CCS(=O)(=O)c1nn2c(-c3ccc(OC(F)(F)C(F)F)cc3)ccnc2c1-c1nc2cc(C(F)(F)F)cnc2n1C [Compound 90, 2-(2-(Ethylsulfonyl)-7-(4-(1,1,2,2-tetrafluoroethoxy)phenyl)pyrazolo[1,5-a]pyrimidin-3-yl)-3-methyl-6-(trifluoromethyl)-3H-imidazo[4,5-b]pyridine] | > 70% | > 70% | > 70%
4 | CCS(=O)(=O)c1nn2c(-c3ccc(OC(F)(F)F)cc3)ccnc2c1-c1nc2cc(S(=O)(=O)C(F)(F)F)ccc2o1 [Compound 32, 2-(2-(Ethylsulfonyl)-7-(4-(trifluoromethoxy)phenyl)pyrazolo[1,5-a]pyrimidin-3-yl)-5-((trifluoromethyl)sulfonyl)benzo[d]oxazole] | > 70% | – | > 70%
5 | CCS(=O)(=O)c1nn2c(-c3ccc(Cl)cc3)ccnc2c1-c1nc2cc(C(F)(F)F)cnc2n1C [Compound 39, 2-(7-(4-Chlorophenyl)-2-(ethylsulfonyl)pyrazolo[1,5-a]pyrimidin-3-yl)-3-methyl-6-(trifluoromethyl)-3H-imidazo[4,5-b]pyridine] | > 70% | – | > 70%
6 | CCS(=O)(=O)c1nn2c(-c3ccc(F)cc3)ccnc2c1-c1nc2cc(C(F)(F)F)cnc2n1C [Compound 25, 2-(2-(Ethylsulfonyl)-7-(4-fluorophenyl)pyrazolo[1,5-a]pyrimidin-3-yl)-3-methyl-6-(trifluoromethyl)-3H-imidazo[4,5-b]pyridine] | > 70% | > 70% | > 70%
7 | CCS(=O)(=O)c1nn2c(-c3ccc(OC(F)(F)C(F)F)cc3)ccnc2c1-c1nc2cc(C(F)(F)F)ncc2n1C [Compound 91, 2-(2-(Ethylsulfonyl)-7-(4-(1,1,2,2-tetrafluoroethoxy)phenyl)pyrazolo[1,5-a]pyrimidin-3-yl)-3-methyl-6-(trifluoromethyl)-3H-imidazo[4,5-c]pyridine] | > 70% | – | > 70%
8 | CCS(=O)(=O)c1nn2c(-c3ccc(Cl)cc3)ccnc2c1-c1nc2cc(C(F)(F)F)ncc2n1C [Compound 37, 2-(7-(4-Chlorophenyl)-2-(ethylsulfonyl)pyrazolo[1,5-a]pyrimidin-3-yl)-3-methyl-6-(trifluoromethyl)-3H-imidazo[4,5-c]pyridine] | > 70% | > 70% | –
9 | CCSc1nn2c(-c3cccc(Cl)c3)ccnc2c1-c1nc2cc(C(F)(F)F)cnc2n1C [Compound 97, 2-(7-(3-Chlorophenyl)-2-(ethylthio)pyrazolo[1,5-a]pyrimidin-3-yl)-3-methyl-6-(trifluoromethyl)-3H-imidazo[4,5-b]pyridine] | – | – | > 70%
10 | CCS(=O)(=O)c1nn2c(-c3cccc(Cl)c3)ccnc2c1-c1nc2cc(C(F)(F)F)cnc2n1C [Compound 99, 2-(7-(3-Chlorophenyl)-2-(ethylsulfonyl)pyrazolo[1,5-a]pyrimidin-3-yl)-3-methyl-6-(trifluoromethyl)-3H-imidazo[4,5-b]pyridine] | > 70% | – | > 70%
11 | CCS(=O)(=O)c1nn2c(C)cc(C)nc2c1-c1nc2cc(S(=O)(=O)C(F)(F)F)ccc2o1 [Compound 15, 2-(2-(Ethylsulfonyl)-5,7-dimethylpyrazolo[1,5-a]pyrimidin-3-yl)-5-((trifluoromethyl)sulfonyl)benzo[d]oxazole] | > 70% | > 70% | > 70%
12 | CCS(=O)(=O)c1nn2c(-c3cccc(C(F)(F)F)c3)ccnc2c1-c1nc2cc(C(F)(F)F)cnc2n1C [Compound 129, 2-(2-(ethylsulfonyl)-7-(3-(trifluoromethyl)phenyl)pyrazolo[1,5-a]pyrimidin-3-yl)-3-methyl-6-(trifluoromethyl)-3H-imidazo[4,5-b]pyridine] | > 70% | > 70% | –
13 | CCS(=O)(=O)c1nn2cc(-c3ccc(OC(F)(F)C(F)F)cc3)cnc2c1-c1nc2cc(C(F)(F)F)ncc2n1C [Compound 109, 2-(2-(Ethylsulfonyl)-6-(4-(1,1,2,2-tetrafluoroethoxy)phenyl)pyrazolo[1,5-a]pyrimidin-3-yl)-3-methyl-6-(trifluoromethyl)-3H-imidazo[4,5-c]pyridine] | > 70% | – | > 70%
14 | CCSc1nn2c(-c3ccc(OC(F)(F)F)cc3)ccnc2c1-c1nc2cc(C(F)(F)F)ncc2n1C [Compound 28, 2-(2-(Ethylthio)-7-(4-(trifluoromethoxy)phenyl)pyrazolo[1,5-a]pyrimidin-3-yl)-3-methyl-6-(trifluoromethyl)-3H-imidazo[4,5-c]pyridine] | > 70% | – | > 70%
15 | CCSc1nn2c(-c3cc(F)cc(Cl)c3)ccnc2c1-c1nc2cc(C(F)(F)F)cnc2n1C [Compound 102, 2-(7-(3-Chloro-5-fluorophenyl)-2-(ethylthio)pyrazolo[1,5-a]pyrimidin-3-yl)-3-methyl-6-(trifluoromethyl)-3H-imidazo[4,5-b]pyridine] | – | – | > 70%
16 | CCSc1nn2c(-c3ccc(Cl)cc3Cl)ccnc2c1-c1nc2cc(C(F)(F)F)cnc2n1C [Compound 120, 2-(7-(2,4-Dichlorophenyl)-2-(ethylthio)pyrazolo[1,5-a]pyrimidin-3-yl)-3-methyl-6-(trifluoromethyl)-3H-imidazo[4,5-b]pyridine] | – | – | > 70%
17 | CCSc1nn2c(-c3cccc(C(F)(F)F)c3)ccnc2c1-c1nc2cc(C(F)(F)F)ncc2n1C [Compound 134, 2-(2-(Ethylthio)-7-(3-(trifluoromethyl)phenyl)pyrazolo[1,5-a]pyrimidin-3-yl)-3-methyl-6-(trifluoromethyl)-3H-imidazo[4,5-c]pyridine] | – | > 70% | –
18 | CCS(=O)(=O)c1nn2c(-c3cccc(C(F)(F)F)c3)ccnc2c1-c1nc2cc(C(F)(F)F)ncc2n1C [Compound 136, 2-(2-(Ethylsulfonyl)-7-(3-(trifluoromethyl)phenyl)pyrazolo[1,5-a]pyrimidin-3-yl)-3-methyl-6-(trifluoromethyl)-3H-imidazo[4,5-c]pyridine] | > 70% | – | > 70%
19 | CCSc1nn2c(-c3cccc(C(F)(F)F)c3)ccnc2c1-c1nc2cc(C(F)(F)F)cnc2n1C [Compound 126, 2-(2-(Ethylthio)-7-(3-(trifluoromethyl)phenyl)pyrazolo[1,5-a]pyrimidin-3-yl)-3-methyl-6-(trifluoromethyl)-3H-imidazo[4,5-b]pyridine] | – | > 70% | > 70%
20 | CCS(=O)(=O)c1nn2c(C)ccnc2c1-c1nc2cc(C(F)(F)F)cnc2n1C [Compound 133, 2-(2-(Ethylsulfonyl)-7-methylpyrazolo[1,5-a]pyrimidin-3-yl)-3-methyl-6-(trifluoromethyl)-3H-imidazo[4,5-b]pyridine] | > 70% | – | –
21 | CCSc1nn2cc(Cl)cnc2c1-c1nc2cc(C(F)(F)F)cnc2n1C [Compound 48, 2-(6-Chloro-2-(ethylthio)pyrazolo[1,5-a]pyrimidin-3-yl)-3-methyl-6-(trifluoromethyl)-3H-imidazo[4,5-b]pyridine] | > 70% | – | –
22 | CCS(=O)(=O)c1nn2c(-c3ccc(OC(F)(F)F)cc3)ccnc2c1-c1nc2cc(C(F)(F)F)ncc2n1C [Compound 30, 2-(2-(Ethylsulfonyl)-7-(4-(trifluoromethoxy)phenyl)pyrazolo[1,5-a]pyrimidin-3-yl)-3-methyl-6-(trifluoromethyl)-3H-imidazo[4,5-c]pyridine] | > 70% | – | –
